Consider seven molecules from patent US20250127170A1, “TRIAZINE HERBICIDAL COMPOUNDS” (SYNGENTA CROP PROTECTION AG, priority 2021, published 2025).

What all share (format): in vivo
What all share (conditions): 312 h, evaluated after 13 days, 100=total damage to plant, 0=no damage to plant

Experiment [1] has as its system Amaranthus palmeri (AMAPA). The experiment in a line: Pre-emergence biological efficacy. As to the method: (§1) Seeds of weeds and/or crops were sown in standard soil in pots (Amaranthus palmeri (AMAPA), Lolium perenne (LOLPE), Euphorbia heterophylla (EPHHL), Ipomoea hederacea (IPOHE), Setaria faberi (SETFA), Echinochloa crus-galli (ECHCG)). After cultivation for one day under controlled conditions in a glasshouse (at 24/19° C., day/night; 16 hours light), the plants were sprayed with an aqueous spray solution derived from the formulation of the technical active ingredient in a small amount of acetone and a special solvent and emulsifier mixture referred to as IF50 (11.12% Emulsogen EL360™+44.44% N-methylpyrrolidone+44.44% Dowanol DPM glycol ether), to create a 50 g/l solution which was then diluted using 0.2% Genapol XO80 as diluent to give the desired final dose of test compound.
(§2) The test plants were then grown under controlled conditions in the glasshouse (at 24/18° C., day/night; 15 hours light; 50% humidity) and watered twice daily. After 13 days the test was evaluated (100=total damage to plant; 0=no damage to plant).

Experiment [2] relates to Echinochloa crus-galli (ECHCG). The experiment in a line: Pre-emergence biological efficacy. As to the method: as §1, §2
Experiment [3] concerns Euphorbia heterophylla (EPHHL). As to the kind of experiment: Pre-emergence biological efficacy. The method, then: as §1, §2
The subject of experiment [4] is Ipomoea hederacea (IPOHE). As to the kind of experiment: Pre-emergence biological efficacy. As to the method:
as §1, §2

For experiment [5], the system named is Lolium perenne (LOLPE). As to the kind of experiment: Pre-emergence biological efficacy. The method, then: as §1, §2
Experiment [6] concerns Setaria faberi (SETFA). As to the kind of experiment: Pre-emergence biological efficacy. The method, then:
as §1, §2

The test system of experiment [7] is Amaranthus palmeri (AMAPA). The experiment in a line: Post-emergence biological efficacy. As to the method: as §1, with “Chenopodium album (CHEAL),” for “Lolium perenne (LOLPE),”, “(IPOHE), Eleusine indica (ELEIN), Lolium perenne (LOLPE), Digitaria sanguinalis (DIGSA),” for “(IPOHE),”, “14 days” for “one day”, “compound. The test plants were then grown under controlled conditions in the glasshouse (at 24/18° C., day/night; 15 hours light; 50% humidity) and watered twice daily. After 13 days the test was evaluated (100=total damage to plant; 0=no damage to plant).” for “compound.”

The subject of experiment [8] is Chenopodium album (CHEAL). As to the kind of experiment: Post-emergence biological efficacy. As to the method: as §1, with “Chenopodium album (CHEAL),” for “Lolium perenne (LOLPE),”, “(IPOHE), Eleusine indica (ELEIN), Lolium perenne (LOLPE), Digitaria sanguinalis (DIGSA),” for “(IPOHE),”, “14 days” for “one day”, “compound. The test plants were then grown under controlled conditions in the glasshouse (at 24/18° C., day/night; 15 hours light; 50% humidity) and watered twice daily. After 13 days the test was evaluated (100=total damage to plant; 0=no damage to plant).” for “compound.”

Experiment [9] concerns Digitaria sanguinalis (DIGSA). The experiment in a line: Post-emergence biological efficacy. The method, then:
as §1, with “Chenopodium album (CHEAL),” for “Lolium perenne (LOLPE),”, “(IPOHE), Eleusine indica (ELEIN), Lolium perenne (LOLPE), Digitaria sanguinalis (DIGSA),” for “(IPOHE),”, “14 days” for “one day”, “compound. The test plants were then grown under controlled conditions in the glasshouse (at 24/18° C., day/night; 15 hours light; 50% humidity) and watered twice daily. After 13 days the test was evaluated (100=total damage to plant; 0=no damage to plant).” for “compound.”

Experiment [10] concerns Echinochloa crus-galli (ECHCG). As to the kind of experiment: Post-emergence biological efficacy. The method, then:
as §1, with “Chenopodium album (CHEAL),” for “Lolium perenne (LOLPE),”, “(IPOHE), Eleusine indica (ELEIN), Lolium perenne (LOLPE), Digitaria sanguinalis (DIGSA),” for “(IPOHE),”, “14 days” for “one day”, “compound. The test plants were then grown under controlled conditions in the glasshouse (at 24/18° C., day/night; 15 hours light; 50% humidity) and watered twice daily. After 13 days the test was evaluated (100=total damage to plant; 0=no damage to plant).” for “compound.”

The next experiment deals with Eleusine indica (ELEIN). The experiment in a line: Post-emergence biological efficacy. As to the method:
as §1, with “Chenopodium album (CHEAL),” for “Lolium perenne (LOLPE),”, “(IPOHE), Eleusine indica (ELEIN), Lolium perenne (LOLPE), Digitaria sanguinalis (DIGSA),” for “(IPOHE),”, “14 days” for “one day”, “compound. The test plants were then grown under controlled conditions in the glasshouse (at 24/18° C., day/night; 15 hours light; 50% humidity) and watered twice daily. After 13 days the test was evaluated (100=total damage to plant; 0=no damage to plant).” for “compound.”

The subject of experiment [11] is Euphorbia heterophylla (EPHHL). The experiment in a line: Post-emergence biological efficacy. As to the method: as §1, with “Chenopodium album (CHEAL),” for “Lolium perenne (LOLPE),”, “(IPOHE), Eleusine indica (ELEIN), Lolium perenne (LOLPE), Digitaria sanguinalis (DIGSA),” for “(IPOHE),”, “14 days” for “one day”, “compound. The test plants were then grown under controlled conditions in the glasshouse (at 24/18° C., day/night; 15 hours light; 50% humidity) and watered twice daily. After 13 days the test was evaluated (100=total damage to plant; 0=no damage to plant).” for “compound.”

Experiment [12] deals with Ipomoea hederacea (IPOHE). As to the kind of experiment: Post-emergence biological efficacy. As to the method: as §1, with “Chenopodium album (CHEAL),” for “Lolium perenne (LOLPE),”, “(IPOHE), Eleusine indica (ELEIN), Lolium perenne (LOLPE), Digitaria sanguinalis (DIGSA),” for “(IPOHE),”, “14 days” for “one day”, “compound. The test plants were then grown under controlled conditions in the glasshouse (at 24/18° C., day/night; 15 hours light; 50% humidity) and watered twice daily. After 13 days the test was evaluated (100=total damage to plant; 0=no damage to plant).” for “compound.”

Experiment [13] has as its system Lolium perenne (LOLPE). As to the kind of experiment: Post-emergence biological efficacy. The method, then: as §1, with “Chenopodium album (CHEAL),” for “Lolium perenne (LOLPE),”, “(IPOHE), Eleusine indica (ELEIN), Lolium perenne (LOLPE), Digitaria sanguinalis (DIGSA),” for “(IPOHE),”, “14 days” for “one day”, “compound. The test plants were then grown under controlled conditions in the glasshouse (at 24/18° C., day/night; 15 hours light; 50% humidity) and watered twice daily. After 13 days the test was evaluated (100=total damage to plant; 0=no damage to plant).” for “compound.”

The subject of experiment [14] is Setaria faberi (SETFA). The experiment in a line: Post-emergence biological efficacy. The method, then: as §1, with “Chenopodium album (CHEAL),” for “Lolium perenne (LOLPE),”, “(IPOHE), Eleusine indica (ELEIN), Lolium perenne (LOLPE), Digitaria sanguinalis (DIGSA),” for “(IPOHE),”, “14 days” for “one day”, “compound. The test plants were then grown under controlled conditions in the glasshouse (at 24/18° C., day/night; 15 hours light; 50% humidity) and watered twice daily. After 13 days the test was evaluated (100=total damage to plant; 0=no damage to plant).” for “compound.”

Turning to `CCOC(=O)[C@H]1C[C@@H](OC(=O)c2cc(-n3c(=O)n(C)c(=S)n(C)c3=O)c(F)cc2Cl)C1` [1-981 (cis), (cis)-(3-Ethoxycarbonylcyclobutyl) 2-chloro-5-(3,5-dimethyl-2,6-dioxo-4-thioxo-1,3,5-triazinan-1-yl)-4-fluoro-benzoate], the pest or weed control (commonly how far the test organism was held down) at 250 g/ha in experiment [1] was found to be 100%; in experiment [2] it was 100%; in [3], 50%; in experiment [4] it was 70%; with Lolium perenne (LOLPE) [5], 80%; in the experiment on Setaria faberi (SETFA) [6], 50%. Besides, the pest or weed control at 250 g/ha was found to be 80% in experiment [7]; 100% in experiment [8]; 50% in experiment [9]; 80% in experiment [10]; 50% in the experiment on Eleusine indica (ELEIN); 60% in [11]. Further, the pest or weed control at 250 g/ha in experiment [12] is 50%; with Lolium perenne (LOLPE) [13], 70%; in the experiment with Setaria faberi (SETFA) [14], 100%.

`CCOC(=O)COC(=O)c1cc(-n2c(=O)n(C)c(=S)n(C)c2=O)c(F)cc1Cl` [Compound 1-12, (2-ethoxy-2-oxo-ethyl]-2-chloro-5-(3,5-dimethyl-2,6-dioxo-4-thioxo-1,3,5-triazinan-1-yl)-4-fluoro-benzoate]: the pest or weed control at 250 g/ha in experiment [1] stood at 100%; in experiment [2], 90%; in [3], 90%; in experiment [4], 80%; in the experiment on Lolium perenne (LOLPE) [5], 90%; in the experiment with Setaria faberi (SETFA) [6], 80%. For the same molecule, the pest or weed control at 250 g/ha (in [7]; in experiment [8]; in experiment [9]; in [10]; in the experiment on Eleusine indica (ELEIN); in experiment [11]) was 100% in each case. For the same molecule, the pest or weed control at 250 g/ha (in [12]; in the experiment with Lolium perenne (LOLPE) [13]; with Setaria faberi (SETFA) [14]) was 100% in each case.

Consider `COC(=O)CNC(=O)c1cc(-n2c(=O)n(C)c(=S)n(C)c2=O)c(F)cc1Cl` [Compound 1-35, Methyl 2-[[2-chloro-5-(3,5-dimethyl-2,6-dioxo-4-thioxo-1,3,5-triazinan-1-yl)-4-fluoro-benzoyl]amino]acetate], for which the pest or weed control at 250 g/ha amounted to 30% in experiment [1]; 80% in experiment [2]; 40% in experiment [3]; 0% in [4]; 70% in the experiment on Lolium perenne (LOLPE) [5]; 10% with Setaria faberi (SETFA) [6]. Moreover, the pest or weed control at 250 g/ha in experiment [7] worked out at 30%; in experiment [8], 20%; in [9] it was 40%; in [10], 40%; with Eleusine indica (ELEIN), 40%; in [11], 70%. The pest or weed control at 250 g/ha in experiment [12] is 50%; in the experiment with Lolium perenne (LOLPE) [13] it was 10%; in the experiment with Setaria faberi (SETFA) [14] it was 40%.

On to `CCOC(=O)[C@H](C)OC(=O)c1cc(-n2c(=O)n(C)c(=S)n(C)c2=O)c(F)cc1Cl` [Compound 1-63 (S-enantiomer), [(1S)-2-ethoxy-1-methyl-2-oxo-ethyl]-2-chloro-5-(3,5-dimethyl-2,6-dioxo-4-thioxo-1,3,5-triazinan-1-yl)-4-fluoro-benzoate], for which the pest or weed control at 250 g/ha in [1] is 100%; in experiment [2] it was 100%; in [3] it was 90%; in experiment [4], 60%; with Lolium perenne (LOLPE) [5] it was 90%; in the experiment on Setaria faberi (SETFA) [6] it was 80%. The pest or weed control at 250 g/ha (in [7]; in [8]; in experiment [9]; in experiment [10]; in the experiment with Eleusine indica (ELEIN); in experiment [11]) was 100% in each case. In addition, the pest or weed control at 250 g/ha (in experiment [12]; in the experiment with Lolium perenne (LOLPE) [13]; in the experiment with Setaria faberi (SETFA) [14]) was 100% in each case.

Take `CCOC(=O)C(CC)OC(=O)c1cc(-n2c(=O)n(C)c(=S)n(C)c2=O)c(F)cc1Cl` (stereo not shown) [Compound 1-114, 1-Ethoxycarbonylpropyl 2-chloro-5-(3,5-dimethyl-2,6-dioxo-4-thioxo-1,3,5-triazinan-1-yl)-4-fluoro-benzoate]: the pest or weed control at 250 g/ha in experiment [1] amounted to 100%; in [2], 100%; in experiment [3], 40%; in [4], 10%; in the experiment with Lolium perenne (LOLPE) [5] it was 70%; in the experiment on Setaria faberi (SETFA) [6] it was 10%. The pest or weed control at 250 g/ha was found to be 20% in experiment [7]; 70% in [8]; 20% in [9]; 60% in [10]; 20% in the experiment on Eleusine indica (ELEIN); 70% in experiment [11]. Moreover, the pest or weed control at 250 g/ha in experiment [12] stood at 40%; in the experiment on Lolium perenne (LOLPE) [13], 30%; in the experiment on Setaria faberi (SETFA) [14], 30%.

On to `CCNC(=O)C(C)(C)OC(=O)c1cc(-n2c(=O)n(C)c(=S)n(C)c2=O)c(F)cc1Cl` [Compound 1-168, [2-(ethylamino)-1,1-dimethyl-2-oxo-ethyl] 2-chloro-5-(3,5-dimethyl-2,6-dioxo-4-thioxo-1,3,5-triazinan-1-yl)-4-fluoro-benzoate], for which the pest or weed control at 250 g/ha was 100% in experiment [1]; 100% in experiment [2]; 100% in experiment [3]; 90% in experiment [4]; 100% in the experiment with Lolium perenne (LOLPE) [5]; 100% in the experiment with Setaria faberi (SETFA) [6]. Besides, the pest or weed control at 250 g/ha (in [7]; in experiment [8]; in experiment [9]; in experiment [10]; in the experiment on Eleusine indica (ELEIN); in experiment [11]) was 100% each time. Moreover, the pest or weed control at 250 g/ha (in experiment [12]; in the experiment on Lolium perenne (LOLPE) [13]; in the experiment with Setaria faberi (SETFA) [14]) was 100% throughout.

Consider `CCOC(=O)C1(N(C)C(=O)c2cc(-n3c(=O)n(C)c(=S)n(C)c3=O)c(F)cc2Cl)CC1` [Compound 1-252, Ethyl 1-[[2-chloro-5-(3,5-dimethyl-2,6-dioxo-4-thioxo-1,3,5-triazinan-1-yl)-4-fluoro-benzoyl]-methyl-amino]cyclopropanecarboxylate], for which the pest or weed control at 250 g/ha in [1] was 100%; in experiment [7], 50%; in [8], 70%; in [9] it was 0%; in [10], 0%; in the experiment with Eleusine indica (ELEIN) it was 50%. Moreover, the pest or weed control at 250 g/ha in experiment [11] was determined as 40%; in [12] it was 30%; in the experiment on Lolium perenne (LOLPE) [13], 40%; in the experiment with Setaria faberi (SETFA) [14] it was 0%.
